# Reference: patent US10894059B2, “NADH compound composition, and preparation and use thereof” (BONTAC BIO-ENGINEERING (SHENZHEN) CO., LTD, priority 2017, dated 2021)
# What was measured:
# [1] = people taking L-carnitine for weight loss, as much as 1˜3 g; cited from earlier work
# [2] = test system: mice fed with high fat feed; assay: Comparative pharmacological evaluation in obese mice (high fat feed model); type: in vivo; conditions: gavage once a day, 50 mg according to L-carnitine, 4 weeks
# Description: Fifty male mice are selected at 6 weeks of age. The basal feed is fed for two weeks before the start of the experiment, and the initial body weight is 26±2 g. All experimental groups are randomly divided into 5 groups of 10 each, and the groups were as follows. (1) obesity experiment group: 1 group; (2) obesity experiment group: 2 groups; (3) obese control group; (4) obese blank group; (5) normal blank group Cage feeding, 5 in 1 cage; ambient temperature of 22±2° C., humidity of 45˜65%; the light illumination alternates for 12 h, and the mice are free to eat and drink. Among them, the normal blank group is fed with normal feed, and the other 4 groups are fed with high fat feed; changes in body weight are recorded twice a week; the feeding process lasts 6 weeks to establish the model. Group (1) is given a solution of the NADH compound composition prepared in Embodiment 1 by gavage once a day; Group (2) is given a mixture of NADH and L-carnitine in Embodiment 1 (without other ingredients) by gavage once a day; Group (3) is given L-carnitine by gavage once a day; the amount of administration for Group (1), Group (2) and Group (3) is 50 mg according to L-carnitine; during the period, 5 groups of mice are fed with normal diet in free diet, and continued to be observed for 4 weeks. […]
compound,measurement,setting,value
"C[N+](C)(C)C[C@H](O)CC(=O)[O-] [L-carnitine, β-hydroxy γ-trimethylammonium butyrate]",absolute bioavailability,[1],15.9±4.9%
same,Body fat ratio (%),[2]; (fat around kidney + fat around testicles)/body weight after test*100,2.35 ± 2.69%
same,Body weight growth rate (%),[2]; weight growth/experimental initial weight*100,44.98 ± 3.44%
